Data on four molecules can be found in patent publication US20100155657A1, “AQUEOUS COMPOSITION CONTAINING FLUORINATED SULFONAMIDE AND SULFONAMIDATE COMPOUNDS” (3M Innovative Properties Company, priority 2008, published 2010).

Each structure is given as a SMILES string.

A short description of series [1]: calculated neutralization equilibrium constant Kn for deprotonation of sulfonamide with ammonia. The series is classed as physicochemical. The following applies: for Kn: RfSO2NHX + NH3 -> RfSO2N(-)X + NH4+, pKa of ammonium 9.24 at 25 °C; for K(RfSO2NHX): acid dissociation constant of the sulfonamide, from pKa. As for the experimental part: The equilibrium between a sulfonamide and its conjugate sulfamidate anion is determined by the both the pKa of the sulfonamide and the pKb (i.e., the pKa of the conjugate acid of the base).
NH3+RfSO2NHX→NH4^++RfSO2N^(−)X
The neutralization equilibrium constant Kn can be expressed as
Kn can also be expressed as: […]

The conditions of series [2]: determined experimentally.

For `O=S(=O)(NCCO)C(F)(F)C(F)(F)C(F)(F)C(F)(F)F` [X = CH2CH2OH, CF3CF2CF2CF2SO2NHCH2CH2OH], in series [1], the Kn was 467 and the “K(RfSO2NHX)” value was 2.69 × 10^−7.

Broadly, the pKa is the pH at which an ionisable group is half protonated. Read a high pKa as a group that holds its proton tightly. Molecule `CCNS(=O)(=O)C(F)(F)C(F)(F)C(F)(F)C(F)(F)F` [X = CH2CH3] displayed a pKa in series [2] of 8.15.

Consider `CNS(=O)(=O)C(F)(F)C(F)(F)C(F)(F)C(F)(F)F` [X = CH3, CF3CF2CF2CF2SO2NHCH3], for which, in series [1], the Kn is 52 and the “K(RfSO2NHX)” value is given as 3.01 × 10^−8.

In the case of `NS(=O)(=O)C(F)(F)C(F)(F)C(F)(F)C(F)(F)F` [X = H, CF3CF2CF2CF2SO2NH2], in series [1], the Kn was 1800 and the “K(RfSO2NHX)” value is recorded as 1.05 × 10^−6.
